Assay results: the NIST ThermoML archive (doi:10.1021/je900387e)
± gives the expanded uncertainty stated by the source.

Assay: xn = mol fraction of the nth substance listed
Conditions: Liquid, Pycnometric method

Cn1ccnc1 [1-methylimidazole] + O=C=O
Conditions	mass density [kg/m3]
322.7 K, 12990 kPa, x1 = 0.0487	807 ± 4
322.7 K, 13020 kPa, x1 = 0.0247	755 ± 4
322.7 K, 13030 kPa, x1 = 0.0102	707 ± 4
322.7 K, 13120 kPa, x1 = 0.0487	809 ± 4
322.7 K, 13250 kPa, x1 = 0.0487	812 ± 4
322.7 K, 13310 kPa, x1 = 0.0247	762 ± 4
322.7 K, 13480 kPa, x1 = 0.0102	723 ± 4
322.7 K, 13500 kPa, x1 = 0.0487	817 ± 4
322.7 K, 13620 kPa, x1 = 0.0247	770 ± 4
322.7 K, 13790 kPa, x1 = 0.0487	822 ± 4
322.7 K, 13950 kPa, x1 = 0.0247	777 ± 4
322.7 K, 14040 kPa, x1 = 0.0102	740 ± 4
322.7 K, 14080 kPa, x1 = 0.0487	827 ± 4
322.7 K, 14340 kPa, x1 = 0.0247	786 ± 4
322.7 K, 14370 kPa, x1 = 0.0487	832 ± 4
322.7 K, 14510 kPa, x1 = 0.0102	753 ± 4
322.7 K, 14640 kPa, x1 = 0.1024	909 ± 4
322.7 K, 14710 kPa, x1 = 0.0487	838 ± 4
322.7 K, 14750 kPa, x1 = 0.0247	794 ± 4
322.7 K, 14780 kPa, x1 = 0.1024	911 ± 4
322.7 K, 14920 kPa, x1 = 0.1024	912 ± 4
322.7 K, 15030 kPa, x1 = 0.1024	913 ± 4
322.7 K, 15070 kPa, x1 = 0.0487	843 ± 4
322.7 K, 15180 kPa, x1 = 0.1024	915 ± 4
322.7 K, 15200 kPa, x1 = 0.0247	802 ± 4
322.7 K, 15260 kPa, x1 = 0.0102	771 ± 4
322.7 K, 15290 kPa, x1 = 0.1024	916 ± 4
322.7 K, 15430 kPa, x1 = 0.0487	849 ± 4
322.7 K, 15470 kPa, x1 = 0.1024	917 ± 4
322.7 K, 15590 kPa, x1 = 0.1024	918 ± 4
322.7 K, 15690 kPa, x1 = 0.0247	810 ± 4
322.7 K, 15860 kPa, x1 = 0.0487	855 ± 4
322.7 K, 15900 kPa, x1 = 0.1024	922 ± 4
322.7 K, 16070 kPa, x1 = 0.0247	816 ± 4
322.7 K, 16210 kPa, x1 = 0.0102	790 ± 4
322.7 K, 16230 kPa, x1 = 0.1024	924 ± 4
322.7 K, 16280 kPa, x1 = 0.0487	860 ± 4
322.7 K, 16530 kPa, x1 = 0.1024	927 ± 4
322.7 K, 16540 kPa, x1 = 0.0247	824 ± 4
322.7 K, 16700 kPa, x1 = 0.0487	866 ± 4
322.7 K, 16830 kPa, x1 = 0.0247	828 ± 4
322.7 K, 16880 kPa, x1 = 0.1024	929 ± 4
322.7 K, 17020 kPa, x1 = 0.0102	805 ± 4
322.7 K, 17160 kPa, x1 = 0.0247	833 ± 4
322.7 K, 17180 kPa, x1 = 0.1024	933 ± 4
322.7 K, 17340 kPa, x1 = 0.1024	934 ± 4
322.7 K, 17490 kPa, x1 = 0.0247	837 ± 4
322.7 K, 17570 kPa, x1 = 0.1024	936 ± 4
322.7 K, 17750 kPa, x1 = 0.1024	937 ± 4
322.7 K, 17830 kPa, x1 = 0.0247	842 ± 4
322.7 K, 17920 kPa, x1 = 0.1024	939 ± 4
322.7 K, 17960 kPa, x1 = 0.0102	821 ± 4
322.7 K, 18120 kPa, x1 = 0.1024	940 ± 4
322.7 K, 18150 kPa, x1 = 0.0102	824 ± 4
322.7 K, 18330 kPa, x1 = 0.1024	942 ± 4
322.7 K, 18570 kPa, x1 = 0.1024	943 ± 4
322.7 K, 18770 kPa, x1 = 0.1024	945 ± 4
322.7 K, 18990 kPa, x1 = 0.1024	946 ± 4
327.6 K, 11610 kPa, x1 = 0.0102	548 ± 4
327.6 K, 11720 kPa, x1 = 0.0102	558 ± 4
327.6 K, 11840 kPa, x1 = 0.0102	568 ± 4
327.6 K, 11970 kPa, x1 = 0.0102	578 ± 4
327.6 K, 12110 kPa, x1 = 0.0102	589 ± 4
327.6 K, 12270 kPa, x1 = 0.0102	600 ± 4
327.6 K, 12440 kPa, x1 = 0.0102	612 ± 4
327.6 K, 12510 kPa, x1 = 0.0247	682 ± 4
327.6 K, 12630 kPa, x1 = 0.0102	624 ± 4
327.6 K, 12630 kPa, x1 = 0.0247	687 ± 4
327.6 K, 12720 kPa, x1 = 0.0247	691 ± 4
327.6 K, 12850 kPa, x1 = 0.0102	636 ± 4
327.6 K, 12890 kPa, x1 = 0.0247	698 ± 4
327.6 K, 13060 kPa, x1 = 0.0247	704 ± 4
327.6 K, 13110 kPa, x1 = 0.0102	649 ± 4
327.6 K, 13250 kPa, x1 = 0.0247	711 ± 4
327.6 K, 13400 kPa, x1 = 0.0102	663 ± 4
327.6 K, 13460 kPa, x1 = 0.0247	718 ± 4
327.6 K, 13670 kPa, x1 = 0.0247	724 ± 4
327.6 K, 13730 kPa, x1 = 0.0102	677 ± 4
327.6 K, 13900 kPa, x1 = 0.0247	731 ± 4
327.6 K, 14110 kPa, x1 = 0.0102	692 ± 4
327.6 K, 14140 kPa, x1 = 0.0247	738 ± 4
327.6 K, 14190 kPa, x1 = 0.0487	791 ± 4
327.6 K, 14340 kPa, x1 = 0.0487	795 ± 4
327.6 K, 14410 kPa, x1 = 0.0247	745 ± 4
327.6 K, 14560 kPa, x1 = 0.0102	707 ± 4
327.6 K, 14570 kPa, x1 = 0.0487	799 ± 4
327.6 K, 14710 kPa, x1 = 0.0247	753 ± 4
327.6 K, 14830 kPa, x1 = 0.0487	804 ± 4
327.6 K, 15010 kPa, x1 = 0.0247	760 ± 4
327.6 K, 15080 kPa, x1 = 0.0487	809 ± 4
327.6 K, 15100 kPa, x1 = 0.0102	723 ± 4
327.6 K, 15270 kPa, x1 = 0.0247	766 ± 4
327.6 K, 15370 kPa, x1 = 0.0487	814 ± 4
327.6 K, 15550 kPa, x1 = 0.0247	772 ± 4
327.6 K, 15660 kPa, x1 = 0.0487	819 ± 4
327.6 K, 15730 kPa, x1 = 0.0102	740 ± 4
327.6 K, 15940 kPa, x1 = 0.0487	825 ± 4
327.6 K, 15970 kPa, x1 = 0.0247	779 ± 4
327.6 K, 16080 kPa, x1 = 0.1024	899 ± 4
327.6 K, 16170 kPa, x1 = 0.1024	900 ± 4
327.6 K, 16280 kPa, x1 = 0.0487	829 ± 4
327.6 K, 16300 kPa, x1 = 0.1024	901 ± 4
327.6 K, 16400 kPa, x1 = 0.0247	787 ± 4
327.6 K, 16420 kPa, x1 = 0.1024	903 ± 4
327.6 K, 16460 kPa, x1 = 0.0102	758 ± 4
327.6 K, 16540 kPa, x1 = 0.1024	904 ± 4
327.6 K, 16640 kPa, x1 = 0.0247	791 ± 4
327.6 K, 16650 kPa, x1 = 0.0487	836 ± 4
327.6 K, 16650 kPa, x1 = 0.1024	905 ± 4
327.6 K, 16780 kPa, x1 = 0.1024	906 ± 4
327.6 K, 16930 kPa, x1 = 0.1024	908 ± 4
327.6 K, 16980 kPa, x1 = 0.0247	798 ± 4
327.6 K, 17060 kPa, x1 = 0.1024	909 ± 4
327.6 K, 17130 kPa, x1 = 0.0102	771 ± 4
327.6 K, 17210 kPa, x1 = 0.0247	802 ± 4
327.6 K, 17210 kPa, x1 = 0.1024	911 ± 4
327.6 K, 17330 kPa, x1 = 0.0487	846 ± 4
327.6 K, 17390 kPa, x1 = 0.1024	912 ± 4
327.6 K, 17490 kPa, x1 = 0.1024	913 ± 4
327.6 K, 17600 kPa, x1 = 0.0247	808 ± 4
327.6 K, 17620 kPa, x1 = 0.1024	914 ± 4
327.6 K, 17740 kPa, x1 = 0.0487	851 ± 4
327.6 K, 17750 kPa, x1 = 0.1024	916 ± 4
327.6 K, 17850 kPa, x1 = 0.0102	786 ± 4
327.6 K, 17870 kPa, x1 = 0.0247	813 ± 4
327.6 K, 17960 kPa, x1 = 0.1024	918 ± 4
327.6 K, 18080 kPa, x1 = 0.1024	919 ± 4
327.6 K, 18200 kPa, x1 = 0.0487	857 ± 4
327.6 K, 18230 kPa, x1 = 0.1024	920 ± 4
327.6 K, 18380 kPa, x1 = 0.0102	795 ± 4
327.6 K, 18380 kPa, x1 = 0.1024	922 ± 4
327.6 K, 18580 kPa, x1 = 0.1024	923 ± 4
327.6 K, 18690 kPa, x1 = 0.0487	863 ± 4
327.6 K, 18770 kPa, x1 = 0.1024	924 ± 4
327.6 K, 18840 kPa, x1 = 0.0102	802 ± 4
327.6 K, 18940 kPa, x1 = 0.1024	925 ± 4
332.4 K, 12410 kPa, x1 = 0.0102	539 ± 4
332.4 K, 12550 kPa, x1 = 0.0102	548 ± 4
332.4 K, 12670 kPa, x1 = 0.0102	558 ± 4
332.4 K, 12820 kPa, x1 = 0.0102	568 ± 4
332.4 K, 12980 kPa, x1 = 0.0102	578 ± 4
332.4 K, 13160 kPa, x1 = 0.0102	589 ± 4
